From ChEMBL document CHEMBL5046281, “N-Aryl Mercaptopropionamides as Broad-Spectrum Inhibitors of Metallo-β-Lactamases” (J Med Chem, 2022)

System: not listed separately
Assay: Inhibition of Escherichia coli NDM-1 using fluorocillin as substrate incubated for 30 mins by fluorescence based assay
Conditions: not given

IC50 | Structure (SMILES)
2500 nM | O=C(CCS)Nc1cccc([N+](=O)[O-])c1
4000 nM | O=C(CCS)Nc1ccc(O)cc1
1500 nM | CC(=O)c1ccc(NC(=O)CCS)cc1
6500 nM | CCN(CC)Cc1cccc(NC(=O)CCS)c1
2700 nM | O=C(CCS)Nc1cccc(O)c1
1300 nM | COC(=O)c1ccccc1NC(=O)CCS
2200 nM | CS(=O)(=O)Nc1cccc(NC(=O)CCS)c1

The next lines start with the compound.

Structure (SMILES) | IC50
O=C(CCS)Nc1ccc(S(=O)(=O)N2CCOCC2)cc1 | 2500 nM
CN1CCN(Cc2ccc(NC(=O)CCS)cc2)CC1 | 6400 nM
O=C(O)[C@H]1CCCCN1C(=O)C(CS)Cc1ccccc1 (some centres not stated) | 700 nM
O=C(CCS)Nc1ccccc1O | 2200 nM
O=C(CCS)Nc1ccc(C(=O)O)cc1 | 1000 nM

System: not listed separately
Assay: Inhibition of Escherichia coli IMP-7 using fluorocillin as substrate incubated for 30 mins by fluorescence based assay
Conditions: not given

IC50 | Structure (SMILES)
2600 nM | O=C(CCS)Nc1cccc([N+](=O)[O-])c1
3400 nM | O=C(CCS)Nc1ccc(O)cc1
5500 nM | CC(=O)c1ccc(NC(=O)CCS)cc1
5500 nM | CCN(CC)Cc1cccc(NC(=O)CCS)c1
1400 nM | O=C(CCS)Nc1cccc(O)c1
1000 nM | COC(=O)c1ccccc1NC(=O)CCS

More lines, now with the values behind:

Structure (SMILES) | IC50
O=C(CCS)Nc1ccc(S(=O)(=O)N2CCOCC2)cc1 | 7100 nM
CN1CCN(Cc2ccc(NC(=O)CCS)cc2)CC1 | 5800 nM
O=C(O)[C@H]1CCCCN1C(=O)C(CS)Cc1ccccc1 (some centres not stated) | 4600 nM
O=C(CCS)Nc1ccccc1O | 3300 nM
O=C(CCS)Nc1ccc(C(=O)O)cc1 | > 10000 nM

System: not listed separately
Assay: Lipophilicity, log D of the compound at pH 7.4 by HPLC-MS analysis
Type: physicochemical
Conditions: buffer

logD | Structure (SMILES)
2.21 | O=C(CCS)Nc1cccc([N+](=O)[O-])c1
0.32 | O=C(CCS)Nc1ccc(O)cc1
1.35 | CC(=O)c1ccc(NC(=O)CCS)cc1
0.24 | CCN(CC)Cc1cccc(NC(=O)CCS)c1
0.41 | O=C(CCS)Nc1cccc(O)c1
1.95 | COC(=O)c1ccccc1NC(=O)CCS
0.62 | CS(=O)(=O)Nc1cccc(NC(=O)CCS)c1

The next lines start with the compound.

Structure (SMILES) | logD
O=C(CCS)Nc1ccc(S(=O)(=O)N2CCOCC2)cc1 | 1.52
CN1CCN(Cc2ccc(NC(=O)CCS)cc2)CC1 | 0.28
O=C(O)[C@H]1CCCCN1C(=O)C(CS)Cc1ccccc1 (some centres not stated) | 0.49
O=C(CCS)Nc1ccccc1O | 1.14
O=C(CCS)Nc1ccc(C(=O)O)cc1 | -1.65

Target: BlaVIM-1 (Escherichia coli, UniProt Q8GDC1)
Assay: Inhibition of Escherichia coli VIM-1 using fluorocillin as substrate incubated for 30 mins by fluorescence based assay
Conditions: not given

IC50 | Structure (SMILES)
100 nM | O=C(CCS)Nc1cccc([N+](=O)[O-])c1
200 nM | O=C(CCS)Nc1ccc(O)cc1
400 nM | CC(=O)c1ccc(NC(=O)CCS)cc1
800 nM | CCN(CC)Cc1cccc(NC(=O)CCS)c1
100 nM | O=C(CCS)Nc1cccc(O)c1
10000 nM | COC(=O)c1ccccc1NC(=O)CCS
1300 nM | CS(=O)(=O)Nc1cccc(NC(=O)CCS)c1

The remaining lines, values behind:

Structure (SMILES) | IC50
O=C(CCS)Nc1ccc(S(=O)(=O)N2CCOCC2)cc1 | 1700 nM
CN1CCN(Cc2ccc(NC(=O)CCS)cc2)CC1 | 1500 nM
O=C(O)[C@H]1CCCCN1C(=O)C(CS)Cc1ccccc1 (some centres not stated) | 900 nM
O=C(CCS)Nc1ccccc1O | 200 nM
O=C(CCS)Nc1ccc(C(=O)O)cc1 | 600 nM
